Test results as given in publication PMC3743865, “The FLT3 Inhibitor Quizartinib Inhibits ABCG2 at Pharmacologically Relevant Concentrations, with Implications for Both Chemosensitization and Adverse Drug Interactions” (PLoS ONE, 2013).

Experiments:
[1] = target: ABCB1 (Homo sapiens, UniProt P08183); assay: biochemical
[2] = target: T1, ABCG2 (Homo sapiens, UniProt Q9UNQ0); assay: biochemical
T1 sequence (Q9UNQ0 1-655): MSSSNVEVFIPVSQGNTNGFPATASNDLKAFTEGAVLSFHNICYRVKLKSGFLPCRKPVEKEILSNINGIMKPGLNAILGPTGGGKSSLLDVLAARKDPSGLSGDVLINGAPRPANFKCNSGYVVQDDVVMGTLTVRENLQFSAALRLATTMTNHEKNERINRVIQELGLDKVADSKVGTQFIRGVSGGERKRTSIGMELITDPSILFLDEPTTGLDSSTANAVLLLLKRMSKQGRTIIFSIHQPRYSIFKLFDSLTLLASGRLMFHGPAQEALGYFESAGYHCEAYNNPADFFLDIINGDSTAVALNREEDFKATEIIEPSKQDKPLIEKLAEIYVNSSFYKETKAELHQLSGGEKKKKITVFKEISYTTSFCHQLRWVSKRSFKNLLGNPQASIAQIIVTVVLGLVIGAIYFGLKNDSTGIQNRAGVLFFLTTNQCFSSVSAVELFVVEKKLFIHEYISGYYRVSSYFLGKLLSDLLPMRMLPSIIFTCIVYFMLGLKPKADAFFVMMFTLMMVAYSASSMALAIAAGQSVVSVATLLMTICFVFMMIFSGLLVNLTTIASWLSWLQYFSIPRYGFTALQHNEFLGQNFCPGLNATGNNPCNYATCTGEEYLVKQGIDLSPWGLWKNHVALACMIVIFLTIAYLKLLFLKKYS

Sequence of ABCB1 (P08183 whole entry): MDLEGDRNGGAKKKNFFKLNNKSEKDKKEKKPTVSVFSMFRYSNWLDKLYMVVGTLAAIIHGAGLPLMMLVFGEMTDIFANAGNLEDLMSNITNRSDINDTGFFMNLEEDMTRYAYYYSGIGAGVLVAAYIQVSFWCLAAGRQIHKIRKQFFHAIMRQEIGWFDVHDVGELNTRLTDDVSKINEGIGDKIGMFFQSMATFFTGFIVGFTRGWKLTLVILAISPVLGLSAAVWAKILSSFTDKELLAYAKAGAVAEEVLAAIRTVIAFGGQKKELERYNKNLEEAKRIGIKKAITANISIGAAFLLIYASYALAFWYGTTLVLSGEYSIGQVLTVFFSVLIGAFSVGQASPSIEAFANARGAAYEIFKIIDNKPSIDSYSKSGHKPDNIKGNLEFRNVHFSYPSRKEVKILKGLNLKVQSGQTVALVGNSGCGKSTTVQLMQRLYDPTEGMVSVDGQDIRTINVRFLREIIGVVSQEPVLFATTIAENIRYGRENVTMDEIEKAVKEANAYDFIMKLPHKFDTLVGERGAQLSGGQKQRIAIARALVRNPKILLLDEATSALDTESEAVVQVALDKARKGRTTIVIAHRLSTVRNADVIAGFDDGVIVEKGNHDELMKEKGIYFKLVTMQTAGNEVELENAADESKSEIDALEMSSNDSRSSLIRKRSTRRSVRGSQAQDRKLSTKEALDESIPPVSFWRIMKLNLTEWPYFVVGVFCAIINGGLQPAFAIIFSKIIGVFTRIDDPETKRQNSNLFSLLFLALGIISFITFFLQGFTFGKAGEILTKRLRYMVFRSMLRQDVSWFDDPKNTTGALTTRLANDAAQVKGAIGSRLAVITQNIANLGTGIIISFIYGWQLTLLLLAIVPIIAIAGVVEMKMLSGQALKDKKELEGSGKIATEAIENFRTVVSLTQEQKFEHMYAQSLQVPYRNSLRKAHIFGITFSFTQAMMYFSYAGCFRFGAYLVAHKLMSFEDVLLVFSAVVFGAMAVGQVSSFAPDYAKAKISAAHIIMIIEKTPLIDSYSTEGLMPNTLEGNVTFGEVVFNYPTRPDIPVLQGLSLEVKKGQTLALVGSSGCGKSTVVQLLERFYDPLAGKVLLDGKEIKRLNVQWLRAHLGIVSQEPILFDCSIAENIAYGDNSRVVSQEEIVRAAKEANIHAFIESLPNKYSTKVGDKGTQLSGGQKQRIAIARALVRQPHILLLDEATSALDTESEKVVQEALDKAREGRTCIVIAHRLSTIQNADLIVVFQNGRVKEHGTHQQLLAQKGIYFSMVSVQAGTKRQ

For CC(C)(C)c1cc(NC(=O)Nc2ccc(-c3cn4c(n3)sc3cc(OCCN5CCOCC5)ccc34)cc2)no1 [quizartinib], the IC50 [1] was 3300 nM and the IC50 [2] was 70 nM.
